Series [1] in a line: logP determination by titration in octanol/water.
Excerpt: The shift of the aqueous pKas in the presence of octanol was used to determine the logP of the different species.
The nature of series [2]: logD determination (liquid-liquid distribution chromatography, octanol-coated column).
Description: The logD of the sample was determined at pH 7.4 by liquid-liquid distribution chromatography. Compounds were eluted from an octanol-coated column with an octanol-saturated mobile phase adjusted to pH 7.4. Compound retention time was converted to logD value by comparison to the retention time of a set of standard compounds with well-characterized logD octanol values.
The nature of series [3]: In vitro binding assay: free test drug recovered after 3 h incubation with and without patiromer in SGF, acetate buffer or SIF. The settings on record: for SGF / SIF / AB: QSPR input data; for SGF: test matrix SGF; for SIF: test matrix SIF; for AB: test matrix acetate buffer (AB); for In Vitro Binding (% Drug Recovered) Acetate Buffer (pH 4.5) / In Vitro Binding (% Drug Recovered) SGF (pH 3) / In Vitro Binding (% Drug Recovered) SIF (pH 5.9): patiromer 25.2 g/L, 3 h, 37°C, geometric mean of 12 replicates; for Binding categories (level of in vitro interaction with patiromer): across SGF, AB and SIF test matrices; for In Vitro Binding (% Drug Recovered) SGF (pH 3): simulated gastric fluid, final pH 3.0; for In Vitro Binding (% Drug Recovered) SIF (pH 5.9): simulated intestinal fluid, final pH 5.9; for In vitro patiromer binding category: strong, weak or non-binding.
Description: Patiromer binding to test compounds was assessed by comparing free test drug concentrations after incubation with and without patiromer. […] Test drug concentrations were based on the lowest clinically relevant dose of test drug in US prescribing information in a 1-L volume.
Three test buffers were used: simulated gastric fluid without added pepsin (SGF; initial pH 1.2), acetate buffer (AB; initial pH 4.5), and simulated intestinal fluid without added pancreatin (SIF; initial pH 6.8). Tween-20 was included at 0.05% v/v as a surfactant to aid in solubilizing test drugs.
Binding studies were performed in a 10 ml volume in 16×100 mm borosilicate tubes, and incubated for 3 h at 37°C with end-over-end rotation at ~25 rpm. After incubation, patiromer was allowed to settle for 5 min; supernatants were withdrawn and passed through a 0.45 μm filter, collected by centrifugation, and transferred to chromatography vials for analysis. Control samples containing buffer and drug, but without patiromer, were subjected to the same experimental process. For 24 of the test drugs, a reversed phase high performance liquid chromatography method was used for analysis in the three test matrices. […] During method qualification, we conducted a pretest of each drug in test media alone to assure no significant loss in recovery during the incubation or filtration steps. If there was not sufficient recovery compared to theoretical concentration, the drug could not be evaluated in that medium. The recovered drug in the presence or absence of patiromer was used to calculate percent recovery of test drug, and represents the geometric mean of 12 replicates.
To measure binding, each compound was co-incubated with patiromer using the highest single clinical dose of polymer and the minimum clinical dose of test drug. […] Following co-incubation, patiromer and any bound drug were removed by centrifugation and the remaining unbound (recovered) drug was measured in the supernatant.

Series [4] is described as follows: pKa determination by titration in aqueous solution (UV or pH monitored).
Description: Test drug pKas were determined experimentally by titration in aqueous solution. Ionization state was monitored by UV or pH. Reported values are the average of three independent determinations. […] Drug concentration was in the range 17–31 μM (UV) or ≥0.4 mM (pH).
Setting [5] is: octanol-coated column with octanol-saturated mobile phase, pH 3.
Setting [6] is: octanol-coated column with octanol-saturated mobile phase, pH 4.5.
Setting [7] is: octanol-coated column with octanol-saturated mobile phase, pH 5.9.
Setting [8] is: aqueous solution, pKa (A = acid), acidic group, average of three determinations.
The mark [9] stands for this setting: aqueous solution, pKa (B = base), basic group, average of three determinations.

This is an account of results in publication PMC5843698, “Use of QSPR Modeling to Characterize In Vitro Binding of Drugs to a Gut-Restricted Polymer” (Pharmaceutical Research, 2018).

Structures can show the parent of a compound that is named as a salt. Where two headings read alike, the source gives them in different places.

As usually defined, the logP is the decadic logarithm of the partition coefficient of the neutral form, usually between octanol and water. High values mean a more lipophilic compound, low ones a more hydrophilic compound. The chromatographic logD is a lipophilicity value derived from retention on a column. Higher therefore signals higher lipophilicity. The term pKa denotes the negative logarithm of the acid dissociation constant. A lower pKa goes with a stronger acid or weaker base.

On to `COc1ccc(-n2nc(C(N)=O)c3c2C(=O)N(c2ccc(N4CCCCC4=O)cc2)CC3)cc1` [Apixaban], for which, in series [1] (octanol/water), the logP is less than 1.4. Also, the chromatographic logD in series [2] (setting [5]) was less than 1.4. Also, in series [2] (setting [6]), the chromatographic logD was less than 1.4. Further, the chromatographic logD in series [2] (setting [7]) was less than 1.4. In series [3], the SGF came out at 75.6, the SIF is 97.8, the AB amounted to 97.3 and the “In Vitro Binding (% Drug Recovered) Acetate Buffer (pH 4.5)” value turned out to be 97.3%. Moreover, in series [3], the “Binding categories (level of in vitro interaction with patiromer)” value (“Binding categories” below) is reported as “No binding (<30% drug bound in any test matrix)”, the “In Vitro Binding (% Drug Recovered) SGF (pH 3)” value is given as 75.6% and the “In Vitro Binding (% Drug Recovered) SIF (pH 5.9)” value is 97.8%.
In series [1] (octanol/water), `O=C1NC(=O)C(c2ccccc2)(c2ccccc2)N1` [Phenytoin sodium] showed a log partition coefficient (logP) of 2.43. In series [2] (setting [5]), this compound had a chromatographic logD of 2.43. This compound returned a chromatographic logD in series [2] (setting [6]) of 2.43. The same compound came in with a chromatographic logD in series [2] (setting [7]) of 2.43. For the same compound, in series [3], the SGF was 83.4, the SIF is on record as 92.8, the AB is given as 90.2 and the “In Vitro Binding (% Drug Recovered) Acetate Buffer (pH 4.5)” value amounted to 90.2%. In addition, in series [3], the “Binding categories” value was “No binding (<30% drug bound in any test matrix)”, the “In Vitro Binding (% Drug Recovered) SGF (pH 3)” value is recorded as 83.4% and the “In Vitro Binding (% Drug Recovered) SIF (pH 5.9)” value is reported as 92.8%. Also, the pKa in series [4] (setting [8]) is 8.18.
In the case of `C[C@@H](NCCCc1cccc(C(F)(F)F)c1)c1cccc2ccccc12` [Cinacalcet HCl], in series [1] (octanol/water), the lipophilicity (logP) was 5.58. The same compound displayed a chromatographic logD in series [2] (setting [5]) of 2.41. In series [2] (setting [6]), this compound gave a chromatographic logD of 2.44. Moreover, the chromatographic logD in series [2] (setting [7]) turned out to be 2.83. For the same compound, in series [3], the SGF is on record as 13.4, the SIF was determined as 18.3, the AB is reported as 19.3 and the “In Vitro Binding (% Drug Recovered) Acetate Buffer (pH 4.5)” value is 19.3%. In series [3], the “In Vitro Binding (% Drug Recovered) SGF (pH 3)” value was 13.4%, the “In Vitro Binding (% Drug Recovered) SIF (pH 5.9)” value was 18.3% and the “In vitro patiromer binding category” value is on record as “Strong patiromer binding”. This compound also returned a pKa in series [4] (setting [9]) of 8.85.
In series [1] (octanol/water), `CC(=O)Oc1ccccc1C(=O)O` [Aspirin] returned a logP of 0.9. Besides, the chromatographic logD in series [2] (setting [5]) was 0.78. Moreover, in series [2] (setting [6]), the chromatographic logD is -0.14. Further, in series [2] (setting [7]), the chromatographic logD is -1.5. Further, in series [3], the SGF came to 100.7, the SIF is given as 99.9, the AB worked out at 99.8 and the “In Vitro Binding (% Drug Recovered) Acetate Buffer (pH 4.5)” value is 99.8%. Also, in series [3], the “Binding categories” value was “No binding (<30% drug bound in any test matrix)”, the “In Vitro Binding (% Drug Recovered) SGF (pH 3)” value was 100.7% and the “In Vitro Binding (% Drug Recovered) SIF (pH 5.9)” value is on record as 99.9%.
`Cc1ncc(C[n+]2csc(CCO)c2C)c(N)n1` [Thiamin] showed a logP in series [1] (octanol/water) of less than -1.5. This compound came in with a chromatographic logD in series [2] (setting [5]) of less than -1.5. The compound also came in with a chromatographic logD in series [2] (setting [6]) of less than -1.5. The chromatographic logD in series [2] (setting [7]) is less than -1.5. Also, in series [3], the “In Vitro Binding (% Drug Recovered) Acetate Buffer (pH 4.5)” value was determined as 50.7%, the “In Vitro Binding (% Drug Recovered) SGF (pH 3)” value is reported as 28.8% and the “In Vitro Binding (% Drug Recovered) SIF (pH 5.9)” value is reported as 42.9%. Also, the pKa in series [4] (setting [9]) worked out at 4.88.
In turn, `O=C(NC[C@H]1CN(c2ccc(N3CCOCC3=O)cc2)C(=O)O1)c1ccc(Cl)s1` [Rivaroxaban] registered a logP in series [1] (octanol/water) of 1.43. The same compound gave a chromatographic logD in series [2] (setting [5]) of 1.43. The compound further came in with a chromatographic logD in series [2] (setting [6]) of 1.43. Also, the chromatographic logD in series [2] (setting [7]) was determined as 1.43. For the same compound, in series [3], the SGF is reported as 71.9, the SIF came out at 95.1, the AB was 92.9 and the “In Vitro Binding (% Drug Recovered) Acetate Buffer (pH 4.5)” value was 92.9%. In addition, in series [3], the “Binding categories” value is on record as “No binding (<30% drug bound in any test matrix)”, the “In Vitro Binding (% Drug Recovered) SGF (pH 3)” value was 71.9% and the “In Vitro Binding (% Drug Recovered) SIF (pH 5.9)” value is 95.1%.
As for `Oc1ncnc2[nH]ncc12` [Allopurinol], the logP in series [1] (octanol/water) was -0.3. In series [2] (setting [5]), this compound gave a chromatographic logD of -0.3. Moreover, in series [2] (setting [6]), the chromatographic logD was -0.3. Also, the chromatographic logD in series [2] (setting [7]) was -0.3. Further, in series [3], the SGF was determined as 85.7, the SIF was determined as 94.2, the AB came out at 90.1 and the “In Vitro Binding (% Drug Recovered) Acetate Buffer (pH 4.5)” value is given as 90.1%. In series [3], the “Binding categories” value is “No binding (<30% drug bound in any test matrix)”, the “In Vitro Binding (% Drug Recovered) SGF (pH 3)” value is given as 85.7% and the “In Vitro Binding (% Drug Recovered) SIF (pH 5.9)” value is 94.2%. For the same compound, the pKa in series [4] (setting [8]) worked out at 9.18.
In series [1] (octanol/water), `NCCCC[C@H](N[C@@H](CCc1ccccc1)C(=O)O)C(=O)N1CCC[C@H]1C(=O)O` [Lisinopril] displayed a log partition coefficient (logP) of -0.51. The compound further yielded a chromatographic logD in series [2] (setting [5]) of -0.85. This compound also came in with a chromatographic logD in series [2] (setting [6]) of -0.52. For the same compound, the chromatographic logD in series [2] (setting [7]) was -0.54. In series [3], the SGF amounted to 77.9, the SIF is 98.5, the AB is 100.7 and the “In Vitro Binding (% Drug Recovered) Acetate Buffer (pH 4.5)” value turned out to be 100.7%. Moreover, in series [3], the “Binding categories” value is reported as “No binding (<30% drug bound in any test matrix)”, the “In Vitro Binding (% Drug Recovered) SGF (pH 3)” value was 77.9% and the “In Vitro Binding (% Drug Recovered) SIF (pH 5.9)” value is 98.5%. This compound showed a pKa in series [4] (setting [8]) of 1.63. The compound further displayed a pKa in series [4] (setting [9]) of 7.13.
Consider `CC(=O)S[C@@H]1CC2=CC(=O)CC[C@]2(C)[C@H]2CC[C@@]3(C)[C@@H](CC[C@@]34CCC(=O)O4)[C@H]12` [Spironolactone], for which, in series [1] (octanol/water), the log partition coefficient (logP) came to 2.53. Further, the chromatographic logD in series [2] (setting [5]) turned out to be 2.53. The same compound showed a chromatographic logD in series [2] (setting [6]) of 2.53. This compound also gave a chromatographic logD in series [2] (setting [7]) of 2.53. For the same compound, in series [3], the SGF was 78.7, the SIF amounted to 96.8, the AB was found to be 98.6 and the “In Vitro Binding (% Drug Recovered) Acetate Buffer (pH 4.5)” value was 98.6%. In series [3], the “Binding categories” value is “No binding (<30% drug bound in any test matrix)”, the “In Vitro Binding (% Drug Recovered) SGF (pH 3)” value was 78.7% and the “In Vitro Binding (% Drug Recovered) SIF (pH 5.9)” value is recorded as 96.8%.
Consider `CC(=O)CC(c1ccccc1)c1c(O)c2ccccc2oc1=O` (racemic) [Warfarin (R/S), Warfarin], for which, in series [1], the logP was 3.25. Moreover, the chromatographic logD worked out at 3.25 in series [2] (pH 3), 3.12 in series [2] (pH 4.5) and 2.25 in series [2] (pH 5.9). In addition, in series [4], the pKa came to 4.94.
`COC(=O)[C@H](c1ccccc1Cl)N1CCc2sccc2C1` [Clopidogrel bisulfate] yielded a lipophilicity (logP) in series [1] (octanol/water) of 4.06. Besides, in series [2] (setting [5]), the chromatographic logD was found to be 2.4. This compound also had a chromatographic logD in series [2] (setting [6]) of 3.67. Also, in series [2] (setting [7]), the chromatographic logD amounted to 4.03. In series [3], the SGF came out at 66, the “Binding categories” value is reported as “Weak binder (30–55% bound in one test matrix)”, the “In Vitro Binding (% Drug Recovered) SGF (pH 3)” value is listed as 66% and the “In vitro patiromer binding category” value is “Weak binders”. The compound also came in with a pKa in series [4] (setting [9]) of 4.66.
In series [1] (octanol/water), `Cc1cc2nc3c(=O)[nH]c(=O)nc-3n(C[C@H](O)[C@H](O)[C@H](O)CO)c2cc1C` [Riboflavin] gave a logP of less than -1.5. In addition, the chromatographic logD in series [2] (setting [5]), in series [2] (setting [6]) and in series [2] (setting [7]) was less than -1.5 in each case. Besides, in series [4] (setting [8]), the pKa worked out at 9.87.
